Entries after “also recorded” stand apart in the source; their conditions may differ.
How the values were obtained:
[1] = Plasma and CSF pharmacokinetics, population PK modeling, Study ALZ1005; assay type: in vivo, human; conditions: for Kp at 28 day: CSF / free plasma; for concentration at 28 day: CSF, read-out: C28d, CSF concentration at Day 28, Mean (SD); for AUC: read-out: Plasma AUCτ, Day 28, Mean (SD); for Cmax: read-out: Plasma Cmax, Day 28, Mean (SD)
Procedure: CSF and plasma collection and processing, as well as apolipoprotein E (APOE) ε4 genotyping, are described in Additional file 2. Population PK modeling from sparse PK samples collected in the ALZ1005 Study was performed to derive individual steady-state maximum plasma concentration [Cmax] and area under the concentration-time profile during the dosing interval at steady state [AUC from 0 to 24 hours postdosing]. This model was also used to derive PK/PD simulations of CSF Aβ1–40 reduction (described in “Pharmacokinetic/pharmacodynamic relationship” section below).
(§1) The lower limit of quantification (LLOQ) was 1 ng/ml.

[2] = Plasma and CSF pharmacokinetics, noncompartmental analysis, Study ALZ1008; assay type: in vivo, human; conditions: for Kp at 28 day: CSF / free plasma, observed plasma concentration, free fraction 6%, read-out: Ratio C28d (CSF)/free plasma, Mean (SD); for concentration at 28 day: CSF, read-out: C28d, CSF concentration at Day 28, Mean (SD); for AUC: read-out: Plasma AUCτ, Day 28, Mean (SD)
Procedure: Total apparent clearance for day 28 was calculated as dose/AUCτ.
as §1

[3] = Cognitive evaluations (CANTAB Elect, RBANS, CDR-SB, MMSE), Study ALZ1005; assay type: in vivo, human; conditions: Caucasian early AD
Procedure: When multiple assessments were performed at the same visit by independent raters, the sequential order of testing was RBANS first followed by CDR, MMSE, and CANTAB Elect, and if raters for RBANS and CDR were the same, then CDR was performed prior to RBANS.
The CDR assessed three domains of cognition (memory, orientation, judgment/problem solving) and three domains of function (community affairs, home/hobbies, personal care) using structured interviews of both the patient and a companion/informant by a trained rater and scored using a standard methodology. CDR global score for the six domains range from 0 to 3 with 0 indicating no dementia and 3 indicating severe dementia. It can be summed to obtain CDR Sum of Boxes (CDR-SB) with scores ranging from 0 to 18. CDR and CDR-Japanese version global score has been used in AD trials as a global measure of disease progression.
RBANS battery includes 12 subsets that measure 5 indices; the Digit Span and Coding subtests measure Attention, the Picture Naming and Semantic Fluency subtests measure Language, the Figure Copy and Line Orientation subtests measure Visuospatial/Construction, List Learning and Store Memory subtests measure Immediate Memory, and List Recall, List Recognition, Store Memory and Figure Recall measure Delayed Memory. RBANS has been used in multinational AD clinical trials.
The CANTAB test battery consists of paired associated learning (PAL), reaction time (RTI) and spatial working memory (SWM). Performance in this test battery is associated with pathologic Aβ and tau levels and enables identification of individuals with memory impairment who are likely to develop AD and those with questionable dementia. Scores have a sensitivity of 0.83 and a specificity of 0.82 when differentiating individuals with MCI from healthy older adults. The PAL test assesses visuospatial episodic memory and the outcome measure is the adjusted number of errors committed at the 6-pattern stage. The test-retest reliability for PAL is 0.75 in MCI and 0.85 in AD. The RTI test assesses psychomotor processing speed. […] The test-retest reliability is 0.68 in MCI and 0.72 in AD. The SWM test assesses working memory and executive function. The outcome measure is the number errors made during performing of the task. The test-retest reliability is 0.55 in MCI and 0.68 in AD.
MMSE rates subjects on orientation, registration, attention, calculation, recall and language. The maximum score is 30, and lower the score the greater the impairment.

[4] = human, in vivo, 4 weeks
Procedure: (§2) Safety and tolerability were assessed during the study by recording adverse events (AEs), clinically significant abnormalities, clinical laboratory tests, ECG, and vital signs and by performing physical, neurological, and MRI examinations. All enrolled participants were included in the safety analysis population.

[5] = cited from earlier work
[6] = design: method as in PMID 29067308; conditions: ALZ1002 Study; CV = 19%; cited from earlier work
[7] = Clinical safety, Study ALZ1008; conditions: Japanese preclinical AD
Procedure: as §2

[8] = human, plasma, oral, Caucasian early AD, 10 mg q.d., population PK modeling
[9] = human, plasma, oral, Caucasian early AD, 50 mg q.d., population PK modeling
[10] = Japanese preclinical AD, 10 mg q.d.
[11] = Japanese preclinical AD, 50 mg q.d.

C[C@@]1(c2cc(NC(=O)c3ccc(C#N)cn3)ccc2F)C=CSC(N)=N1 [atabecestat]
CNS penetrance of unbound drug ([1]; Caucasian and Japanese early AD): high central nervous system penetrance of unbound drug; also recorded: high CNS penetrance of unbound drug | CL/F ([1]; Caucasian early AD (preclinical AD and MCI due to AD), 10 and 50 mg q.d., population PK estimate, intersubject CV 30%): 8.32 L/h | DN AUCτ (dose normalization to 5 mg), Day 28, Mean (SD) ([1]; Caucasian early AD, 10 mg q.d.): 616 (185) ng.h/mL | DN C28d (CSF, dose normalization to 5 mg), Mean (SD) ([1]; Caucasian early AD, 10 mg q.d.): 1.54 (0.52) ng/mL | DN Cmax (dose normalization to 5 mg), Day 28, Mean (SD) ([1]; Caucasian early AD, 10 mg q.d.): 55 (10) ng/mL | DN AUCτ (dose normalization to 5 mg), Day 28, Mean (SD) ([1]; Caucasian early AD, 50 mg q.d.): 620 (171) ng.h/mL | DN C28d (CSF, dose normalization to 5 mg), Mean (SD) ([1]; Caucasian early AD, 50 mg q.d.): 1.51 (0.71) ng/mL | PK linearity ([1]; both populations, 10 and 50 mg): linear PK | Kp at 28 day ([1]; human, oral, Caucasian early AD, 10 mg q.d., simulated plasma concentration, free fraction 6%, read-out: Ratio C28d (CSF)/free plasma, Mean (SD)): 0.789 | Kp at 28 day ([1]; human, oral, Caucasian early AD, 50 mg q.d., simulated plasma concentration, free fraction 6%, read-out: Ratio C28d (CSF)/free plasma, Mean (SD)): 0.892 | Kp at 28 day ([1]; human, oral, Caucasian early AD, 10-mg and 50-mg groups together, day 28): 0.84 | concentration at 28 day ([1]; human, oral, Caucasian early AD, 10 mg q.d.): 3.08 ng/mL | concentration at 28 day ([1]; human, oral, Caucasian early AD, 50 mg q.d.): 15.1 ng/mL | Tmax at 28 day [1, 8]: 1.7 h | AUC [1, 8]: 1230 ng·h/mL | Cmax [1, 8]: 110 ng/mL | AUC [1, 9]: 6200 ng·h/mL | Cmax [1, 9]: 550 ng/mL | Tmax ([1]; human, plasma, oral, Caucasian early AD, 50 mg q.d., population PK modeling, read-out: Plasma Tmax, Day 28): 1.8 h | day at or before which steady-state PK was reached ([2]; Japanese participants, based on mean predose concentrations): ≤ 8 days | DN AUCτ (dose normalization to 5 mg), Day 28, Mean (SD) [2, 10]: 555 (158) ng.h/mL | DN Cmax (dose normalization to 5 mg), Day 28, Mean (SD) [2, 10]: 53.6 (14.1) ng/mL | Plasma Tmax, Day 28, Median (Range) [2, 10]: 2.0 (1.0-3.0) h | DN AUCτ (dose normalization to 5 mg), Day 28, Mean (SD) [2, 11]: 473 (255) ng.h/mL | DN Cmax (dose normalization to 5 mg), Day 28, Mean (SD) [2, 11]: 51.6 (26.7) ng/mL | Plasma Cmax, Day 28, Mean (SD) [2, 11]: 516 (267) ng/mL | Plasma Tmax, Day 28, Median (Range) [2, 11]: 1.5 (1.0-2.0) h | Kp at 28 day ([2]; human, oral, 10 mg, Japanese preclinical AD, 10 mg q.d.): 0.65 | Kp at 28 day ([2]; human, oral, 50 mg, Japanese preclinical AD, 50 mg q.d.): 0.83 | concentration at 28 day ([2]; human, oral, Japanese preclinical AD, 10 mg q.d.): 3.29 ng/mL | concentration at 28 day ([2]; human, oral, Japanese preclinical AD, 50 mg q.d.): 19.1 ng/mL | AUC ([2]; human, plasma, oral, Japanese preclinical AD, 10 mg q.d.): 1110 ng·h/mL | Cmax ([2]; human, plasma, oral, Japanese preclinical AD, 10 mg q.d., read-out: Plasma Cmax, Day 28, Mean (SD)): 107 ng/mL | AUC ([2]; human, plasma, oral, Japanese preclinical AD, 50 mg q.d.): 4730 ng·h/mL | CDR-SB Total Score, change from baseline at day 28, Diff. of LS Means (SE) vs placebo ([3]; 10 mg): ^-0.07 (0.305) | CDR-SB Total Score, change from baseline at day 28, LS Mean ([3]; 10 mg): ^-0.04 | CDR-SB Total Score, change from baseline at day 28, Mean (SD) ([3]; 10 mg): ^-0.04 (0.660) | MMSE Total Score, change from baseline at day 28, Diff. of LS Means (SE) vs placebo ([3]; 10 mg): ^-1.33 (0.906) | MMSE Total Score, change from baseline at day 28, LS Mean ([3]; 10 mg): ^-0.76 | MMSE Total Score, change from baseline at day 28, Mean (SD) ([3]; 10 mg): ^-0.40 (2.971) | PAL Total Errors 6 Shapes Adjusted, change from baseline at day 28, Diff. of LS Means (SE) vs placebo ([3]; 10 mg): ^-1.14 (2.086) | PAL Total Errors 6 Shapes Adjusted, change from baseline at day 28, LS Mean ([3]; 10 mg): ^0.87 | RBANS Total Scale, change from baseline at day 28, Diff. of LS Means (SE) vs placebo ([3]; 10 mg): ^-4.39 (2.762) | RBANS Total Scale, change from baseline at day 28, LS Mean ([3]; 10 mg): ^0.07 | RBANS Total Scale, change from baseline at day 28, Mean (SD) ([3]; 10 mg): ^0.33 (4.995) | RTI Simple Reaction Time Mean, change from baseline at day 28, Diff. of LS Means (SE) vs placebo ([3]; 10 mg): ^41.89 (23.130) | RTI Simple Reaction Time Mean, change from baseline at day 28, LS Mean ([3]; 10 mg): ^14.30 | SWM Between Errors 4-8 Boxes, change from baseline at day 28, Diff. of LS Means (SE) vs placebo ([3]; 10 mg): ^0.06 (2.631) | SWM Between Errors 4-8 Boxes, change from baseline at day 28, LS Mean ([3]; 10 mg): ^1.48 | CDR-SB Total Score, change from baseline at day 28, Diff. of LS Means (SE) vs placebo ([3]; 50 mg): ^0.51 (0.300) | CDR-SB Total Score, change from baseline at day 28, LS Mean ([3]; 50 mg): ^0.54 | CDR-SB Total Score, change from baseline at day 28, Mean (SD) ([3]; 50 mg): ^0.54 (1.082) | MMSE Total Score, change from baseline at day 28, Diff. of LS Means (SE) vs placebo ([3]; 50 mg): ^-1.29 (0.880) | MMSE Total Score, change from baseline at day 28, LS Mean ([3]; 50 mg): ^-0.73 | MMSE Total Score, change from baseline at day 28, Mean (SD) ([3]; 50 mg): ^-0.75 (3.317) | PAL Total Errors 6 Shapes Adjusted, change from baseline at day 28, Diff. of LS Means (SE) vs placebo ([3]; 50 mg): ^-1.44 (2.037) | PAL Total Errors 6 Shapes Adjusted, change from baseline at day 28, LS Mean ([3]; 50 mg): ^0.57 | RBANS Total Scale, change from baseline at day 28, Diff. of LS Means (SE) vs placebo ([3]; 50 mg): ^-2.48 (2.705) | RBANS Total Scale, change from baseline at day 28, LS Mean ([3]; 50 mg): ^1.97 | RBANS Total Scale, change from baseline at day 28, Mean (SD) ([3]; 50 mg): ^1.88 (10.392) | RTI Simple Reaction Time Mean, change from baseline at day 28, Diff. of LS Means (SE) vs placebo ([3]; 50 mg): ^33.19 (23.367) | RTI Simple Reaction Time Mean, change from baseline at day 28, LS Mean ([3]; 50 mg): ^5.60 | SWM Between Errors 4-8 Boxes, change from baseline at day 28, Diff. of LS Means (SE) vs placebo ([3]; 50 mg): ^-0.48 (2.693) | SWM Between Errors 4-8 Boxes, change from baseline at day 28, LS Mean ([3]; 50 mg): ^0.93 | RBANS total scale, MMSE total and CDR Sum of Boxes change from baseline at day 28 ([3]; any treatment group): no meaningful change | CANTAB (PAL, RTI, SWM) changes from baseline at day 28 ([3]; atabecestat treatment groups): No meaningful changes | TEAE incidence (genital herpes) [4]: 5.6% | plasma atabecestat free fraction [5]: 6% | oral clearance (CL/F), model-based estimate [6]: 10.5 L/h | incidence of SAE [7]: no reported incidence of SAE | changes in QTcF ([7]; no changes from baseline > 30-ms): no clinically significant changes
